This experiment addresses T1, Human FAAH (Homo sapiens, UniProt O00519).
T1 construct: The full length FAAH was subcloned into the mammalian expression vector, pcDEF.neo; expressed in transfected cells
T1 sequence (O00519 1-579): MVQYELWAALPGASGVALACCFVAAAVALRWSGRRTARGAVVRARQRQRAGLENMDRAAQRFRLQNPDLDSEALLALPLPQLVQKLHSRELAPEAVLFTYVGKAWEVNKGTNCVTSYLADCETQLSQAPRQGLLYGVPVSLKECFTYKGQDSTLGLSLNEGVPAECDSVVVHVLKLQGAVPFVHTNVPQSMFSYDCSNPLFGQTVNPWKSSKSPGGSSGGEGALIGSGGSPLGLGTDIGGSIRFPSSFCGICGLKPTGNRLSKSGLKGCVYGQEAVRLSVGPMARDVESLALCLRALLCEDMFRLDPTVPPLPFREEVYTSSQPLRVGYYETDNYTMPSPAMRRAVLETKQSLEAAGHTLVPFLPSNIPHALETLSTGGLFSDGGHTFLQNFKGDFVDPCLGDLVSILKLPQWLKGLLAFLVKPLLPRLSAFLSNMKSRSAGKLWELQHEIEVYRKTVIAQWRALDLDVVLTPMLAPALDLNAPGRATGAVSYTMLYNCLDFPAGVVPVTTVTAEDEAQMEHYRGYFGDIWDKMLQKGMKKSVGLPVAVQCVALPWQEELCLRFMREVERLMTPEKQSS
Nature of the experiment: Human FAAH lysate assay (CHO cell lysate, AAMCA fluorescent substrate). Format: biochemical. To be noted: FAAH inhibition, CHO cell lysate expressing human FAAH; read-out: Human Lysate. An excerpt:
To assist in assay development stable cell lines for human, murine and rat full length FAAH were developed. Human FAAH cDNA (Accession No: NM-001441.1) was purchased from Origene (Rockville, Md.). The full length FAAH was subcloned into the mammalian expression vector, pcDEF.neo, using XbaI and EcoRI restriction sites and used for stable cell line generation. CHO cells expressing FAAH were used to prepare either crude cell lysate or microsome fractions. To harvest cells, tissue culture media was decanted, the monolayer washed three times with Ca^++Mg^++ free PBS and cells recovered after 15 min in enzyme free dissociation media (Millipore Corp, Billerica, Mass.). Cells were collected by centrifuging at 2000 rpm for 15 min. and the cell pellet re-suspended with 50 mM HEPES (pH 7.4) containing 1 mM EDTA and the protease inhibitors aprotinin (1 mg/ml) and leupeptin (100 μM). […] The pellet containing FAAH-enriched microsomes was re-suspend in 50 mM HEPES, (pH 7,4) 1 mM EDTA, and any remaining DNA sheared by passage of material through a 23 gauge needle and aliquots of enzyme were store at -80° C. prior to use. […] (American Radiolabeled Chemicals; 1 mCi/ml) with FAAH (Life Sciences (1995), 56, 1999-2005 and Journal of Pharmacology and Experimented Therapeutics (1997), 283, 729-734), Analytical. Biochemistry (2003), 318, 270-5. […] Analytical. Biochemistry (2005). 343, 143-51 […] Fluorescent release as a measure of FAAH activity was monitored by reading the plate in a CytoFluor Multiplate Reader ([…]). Whole cell assay is conducted with cells harvested after rinsing tissue culture flasks three times with Ca^++Mg^++ free PBS, incubating for 10 min in Enzyme free dissociation media and centrifuging for 5 minutes at 1,000 rpm in table top centrifuge. Cells are resuspended in assay buffer at desired cell number in (4×10^4 cells/assay in 96-well format; 1×10^4 cells/assay in 384-well format) and assayed as described. […] The reaction was terminated by addition of 2 volumes of chloroform:methanol (1:1) and mixed by vortexing. […] K., et al. A fluorescence-based assay for fatty acid amide hydrolase compatible with high-throughput screening. Anal. Biochem. 343:143-51 (2005) • Wilson S. J., et l. A high-throughput-compatible assay for determining the activity of fatty acid amide hydrolase. Anal Biochem. 318:270-5 (2003).
Consider `CS(=O)(=O)c1ccc(-c2nc(C3CCC3)[nH]c2Sc2ccc(Cl)cc2)cc1` [Ex 13], for which the IC50 stood at 946 nM.
In the case of `Cn1c(-c2ccccc2)nc(-c2ccc(C#N)cc2)c1Sc1ccc(Cl)cc1` [Ex 2, 4-{5-[(4-Chlorophenyl)thio]-1-methyl-2-phenyl-1H-imidazol-4-yl}benzonitrile], the IC50 was 21.2 nM.
Next, `CC(C)c1nc(-c2ccc(S(C)(=O)=O)cc2)c(Sc2ccc(Cl)cc2)n1C` [Ex 29, 5-[(4-Chlorophenyl)thio]-2-isopropyl-1-methyl-4-[4-(methylsulfonyl)phenyl]-1H-imidazole]: 74.4 nM; `Cn1c(-c2ccccn2)nc(-c2ccc(-n3ccnn3)cc2)c1Sc1ccc(Cl)cc1` [Ex 66]: 16.6 nM.
Next, `Cn1c(C2CCC2)nc(-c2ccc(S(C)(=O)=O)cc2)c1Sc1ccc(Cl)cc1` [Ex 14]: 26.5 nM; `Cn1c(-c2ccccn2)nc(-c2ccc(-c3nnco3)cc2)c1Sc1ccc(Cl)cn1` [Ex 36, 5-Chloro-2-({1-methyl-4-[4-(1,3,4-oxadiazol-2-yl)phenyl]-2-pyridin-2-yl-1H-imidazol-5-yl}thio)pyridine]: 26.9 nM; `Cn1c(-c2ccccn2)nc(-c2ccc(C(O)C(F)F)cc2)c1Sc1ccc(Cl)cc1` (stereo not drawn) [Ex 57, 1-(4-{5-[(4-Chlorophenyl)thio]-1-methyl-2-pyridin-2-yl-1H-imidazol-4-yl}phenyl)-2,2-difluoroethanol]: 21.4 nM.
Next, `Cn1cnc(-c2ccc(C#N)cc2)c1Sc1ccc(Cl)cc1` [Ex 33, 4-{5-[(4-chlorophenyl)thio]-1-methyl-1H-imidazol-4-yl}benzonitrile]: 363 nM.
For `Cn1c(-c2ccccn2)nc(-c2ccc(N)cc2)c1Sc1ccc(Cl)cc1` [Ex 98, 4-{5-[(4-Chlorophenyl)thio]-1-methyl-2-pyridin-2-yl-1H-imidazol-4-yl}aniline], the IC50 amounted to 33.7 nM.
